Data from patent US20230141887A1, “CRYSTAL FORM OF DIAZASPIROPYRAN COMPOUND” (MEDSHINE DISCOVERY INC., priority 2020, published 2023).
Where a name gives a salt, the structure may show the parent alone.

Target: T1, AXL (Homo sapiens, UniProt P30530)
T1 construct: purchased Promega
T1 sequence (P30530 26-894): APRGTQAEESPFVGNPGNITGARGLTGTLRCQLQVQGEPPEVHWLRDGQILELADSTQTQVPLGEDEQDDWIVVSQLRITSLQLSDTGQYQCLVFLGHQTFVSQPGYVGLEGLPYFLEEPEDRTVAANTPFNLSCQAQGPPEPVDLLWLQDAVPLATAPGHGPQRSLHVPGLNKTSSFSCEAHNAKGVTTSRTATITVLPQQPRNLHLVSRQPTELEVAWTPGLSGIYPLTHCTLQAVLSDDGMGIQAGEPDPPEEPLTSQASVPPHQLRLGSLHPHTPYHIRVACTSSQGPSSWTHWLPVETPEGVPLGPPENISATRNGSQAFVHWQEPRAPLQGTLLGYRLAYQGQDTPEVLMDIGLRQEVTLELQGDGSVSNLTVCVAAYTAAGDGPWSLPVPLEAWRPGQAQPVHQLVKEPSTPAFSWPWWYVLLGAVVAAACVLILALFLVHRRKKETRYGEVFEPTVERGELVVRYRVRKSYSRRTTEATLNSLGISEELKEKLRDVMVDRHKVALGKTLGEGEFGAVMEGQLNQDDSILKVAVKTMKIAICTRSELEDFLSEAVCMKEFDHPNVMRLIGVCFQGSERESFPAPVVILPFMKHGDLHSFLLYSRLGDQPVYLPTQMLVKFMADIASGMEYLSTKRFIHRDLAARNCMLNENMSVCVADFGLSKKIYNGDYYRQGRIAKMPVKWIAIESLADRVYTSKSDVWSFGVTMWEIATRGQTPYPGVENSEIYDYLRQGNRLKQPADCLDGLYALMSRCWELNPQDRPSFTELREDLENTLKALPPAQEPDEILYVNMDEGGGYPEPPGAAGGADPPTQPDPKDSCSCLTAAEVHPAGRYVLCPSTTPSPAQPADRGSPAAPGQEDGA
Experiment: Assay of AXL inhibitory activity in vitro (Promega AXL Kinase Enzyme System, ADP-Glo)
Assay type: biochemical
Conditions: 50 μmol/L ATP, 30° C., 60 minutes
Description: AXL Kinase Enzyme System (kinase system) was purchased from Promega. Envision multi-label Analyzer (PerkinElmer).
The enzyme, substrate, ATP and inhibitors were diluted using the buffer solution in the kit.
The assay was carried out in duplicate. 1 μl of the inhibitors of each concentration gradient, 2 μl of the AXL enzyme (6 ng), and a 2 μl mixture of the substrate and ATP (50 μmol/L ATP, 0.2 μg/μL Axltide) were added to the microplate. […] After the reaction was completed, 5 μL of ADP-Glo reagent was added to each well. The system was further reacted at 30° C. for 40 minutes. After the reaction was completed, 10 μL of kinase detection reagent was added to each well and reacted at 30° C. for 30 minutes. The chemiluminescence was then read by the PerkinElmer Envision multi-label analyzer with an integration time of 0.5 seconds.
The original data was converted into an inhibition rate, and the IC50 value can be obtained by four-parameter curve fitting.

IC50: 5.76 nM
SMILES: CCc1nc(C(N)=O)c(Nc2ccc(N3CCC4(CCN(C)CC4)CC3)c(OC)c2)nc1NC1CCOCC1 [Trifluoroacetate salt of compound A, reference compound]
